This note sets out measurements from patent publication US9533064B1, “Device and method for decontamination, disinfection, and sanitation” (Nanomist Systems, LLC, priority 2013, dated 2017).

The assay deals with G. Stearothermophilus.
Where [1] appears, read: 36-m^3 room and 110-m^3 carpeted rooms, initial 40-55% RH, 20-25 C, biological indicators in Tyvek pouches.

Method: The application of condensed vapor cloud generated biocide dispersion was tested in a 36-m^3 single room and in 110-m^3 two-room model (family room+bathroom). The single room was tiled floor and two-room model had wall-to-wall carpet. With initial room humidity in the range 40-55% RH and 20-25 C, decontamination tests were carried out using biological indicators (BI). Biological indicator test disks were prepared by Mesa Labs. The Biological indicators are inoculated with 4-log, 5-log and 6-log populations of G. Stearothermophilus. The BI's are in Tyvek pouches. […] The condensed vapor generator was calibrated with scaling of room size, mass concentration, carpet/tilled floor, and initial RH and temperature.

Regarding `OO` [HP, hydrogen peroxide], under setting [1], the “HP concentration above which 5-log kills were observed” value is given as “above 0.7 g/m^3” and the “HP concentration above which 6-log kill was observed” value was “above 1.8 g/m^3”. Besides, the kill time (HP mass injection rate of −50 g/min) was in the range of 10 to 15 min.
